Here are results for 3 molecules from US20250090528A1, “USE OF COMPLEMENT FACTOR D INHIBITOR FOR TREATMENT OF LUPUS NEPHRITIS AND IMMUNOGLOBULIN A NEPHROPATHY” (Alexion Pharmaceuticals, Inc., priority 2021, published 2025).

Read-outs that look alike come from different tables or passages of the source.

Data set [1] has as its system alternative pathway (AP) activity. As to the kind of experiment: PD activity: AP inhibition in the AP Wieslab assay after multiple-dose administration in healthy participants. Format: in vivo, human. As for the experimental part: The 120 mg BID dosing regimen provided sustained AP inhibition (AP activity <10%) in healthy participants whose ALXN2050 concentrations achieved the 90% inhibitory concentration (IC90) threshold through the 12-hour dosing periods. Therefore, 120 mg BID is selected as the minimum therapeutic dose. […] Therefore, the 180 mg BID is selected as the likely therapeutic dose.
(§1) In addition, both dosage regimens provided complete (>90%) and sustained inhibition of AP activity throughout the 12-hour dosing interval. Therefore, 120 mg BID is selected as the minimum therapeutic dosage.

Data set [2] in a line: Multiple ascending dose study: safety and safety margin versus NOAEL exposures from nonclinical chronic toxicology studies. It counts as in vivo, human. As to conditions: 120 and 200 mg BID. How it is done:
as §1

A short description of data set [3]: Single-ascending and multiple-ascending dose clinical PK studies in healthy volunteers. It counts as in vivo, human. From the text: Clinical pharmacokinetics (PK) and PD data have been generated for ALXN2050 in single-ascending and multiple-ascending dose studies in healthy volunteers.
The test system of data set [4] is lupus nephritis. As to conditions: LN patients, cited from earlier work.
Setting [5] is: NOAEL from nonclinical chronic toxicology studies.

On to `CC(=O)c1nn(CC(=O)N2[C@H](C(=O)Nc3nc(Br)ccc3C)C[C@@]3(C)C[C@@H]23)c2ccc(-c3cnc(C)nc3)cc12` [ALXN2050], for which, in data set [1] (120 and 200 mg BID, throughout the 12-hour dosing interval), the “inhibition of AP activity (complete and sustained)” value is on record as more than 90%. For the same molecule, the activity at 120 mg in data set [1] (Homo sapiens, 120 mg BID, participants whose concentrations achieved the IC90 threshold through the 12-hour dosing periods, read-out: AP activity (sustained AP inhibition)) is less than 10%. For the same molecule, in data set [1] (multiple-dose 40 mg BID to 200 mg BID, healthy participants), the “PD activity (AP inhibition in the AP Wieslab assay)” value is given as “increased with increasing dose”. For the same molecule, in data set [2] (multiple ascending dose study), the “safety and efficacy of dose regimens” value is “safe and effective”. In addition, in data set [2] (setting [5]), the “safety margin in AUC0-24 versus exposures at NOAEL” value is not below 10 fold and the “safety margin in maximum plasma concentration (Cmax) versus exposures at NOAEL” value is not below 10 fold. The “intersubject variability in PK” value in data set [3] is listed as “Large intersubject variability”. Also, the “increase in systemic exposure with dose” value in data set [3] (multiple-dose administration at steady state (Days 7 and 14), 40 mg BID to 200 mg BID) is reported as “greater than dose-proportional increase”. The “increase in systemic exposure with dose” value in data set [3] (single-dose administration) was “dose-proportional increase”.
As to `C=C/C=C/C[C@@H](C)[C@@H](O)[C@H]1C(=O)N[C@@H](CC)C(=O)N(C)CC(=O)N(C)[C@@H](CC(C)C)C(=O)N[C@@H](C(C)C)C(=O)N(C)[C@@H](CC(C)C)C(=O)N[C@@H](C)C(=O)N[C@H](C)C(=O)N(C)[C@@H](CC(C)C)C(=O)N(C)[C@@H](CC(C)C)C(=O)N(C)[C@@H](C(C)C)C(=O)N1C` [voclosporin], the CRR in data set [4] (at one year, placebo 22.5%) was 40.8%.
Turning to “belimumab: approved in the US for the treatment of LN”, the CRR in data set [4] (at two years, placebo 20.0%) is recorded as 30.0%.
